Measured values from patent US20170122958A1, “Enzymes Functional Probes” (University of Dundee, priority 2013, published 2017).

Columns and labels:
Experiment in all cases: DSF thermal shift
Format in all cases: binding
Brd2(2)*(Leu383-Ala) = Brd2(2)*(Leu383-Ala) (Homo sapiens, UniProt P25440, L383A); set-up: Plasmids of the eight single BET bromodomain constructs Brd2(1), Brd2(2), Brd3(1), Brd3(2); His6 (N); made in house; host or cells: E. coli BL21(DE3); conditions: mutant
Procedure: (§1) DSF assays were performed on a LightCycler®480 from Roche or a Mx3005P Real Time PCR machine from Stratagene. […] SYPRO®Orange from Invitrogen Molecular Probes® was used as a reporter dye to monitor the denaturing process of the proteins. Samples were assayed on a 96-well plate with final protein concentrations of 2 μM for the LightCycler®480 and 6 μM for Mx3005P. Compounds were added at a final concentration of 10 μM for the LightCycler®480 and 30 μM for Mx3005P, while the tetra acetylated histone peptide was added to a final concentration of 100 μM and 300 μM respectively. […] The temperature was raised with a step of 0.6° C. per minute from 37° C. to 95° C. with the LightCycler®480 collecting 39 measurements per ° C., and 1° C. per minute from 25° C. to 95° C. with Mx3005P, collecting fluorescence readings at the end of each interval. Each sample was run in triplicates.
(§2) Collected data was analysed by IGOR Pro 6, a scientific software tool from Wave Metrics, Inc. Analysis was done following the recommendations of Niesen et al.. Fluorescence intensity was plotted as a function of temperature, generating a sigmoidal curve described by a two-state transition from folded to unfolded protein. Curves were fitted by the following sigmoidal equation: […]
(§3) A1 and A2 are the values of minimum and maximum intensities, respectively, x0 is the inflection point and dx is the rate. Fitted curves were differentiated in IGOR Pro 6 and the maximum of the first derivative was identified using the same program. These values correspond to the inflection points of the transition curves and thus to the melting temperatures of the proteins (Tm).

Brd2(1)*(Leu110-Ala) = Brd2(1)*(Leu110-Ala) (Homo sapiens, UniProt P25440, L110A); set-up: Plasmids of the eight single BET bromodomain constructs Brd2(1), Brd2(2), Brd3(1), Brd3(2); His6 (N); made in house; host or cells: E. coli BL21(DE3); conditions: mutant
Procedure: as §1, §2, §3

Brd4(1) = molecular target: T1, Brd4(1) (Homo sapiens, UniProt O60885); conditions: wild type
T1 construct: Plasmids of the eight single BET bromodomain constructs Brd2(1), Brd2(2), Brd3(1), Brd3(2), Brd4(1), Brd4(2), Brdt(1) and Brdt(2); His6 (N); made in house; host or cells: E. coli BL21(DE3)

Brd2(2) = molecular target: T2, Brd2(2) (Homo sapiens, UniProt P25440); conditions: wild type
T2 construct: Plasmids of the eight single BET bromodomain constructs Brd2(1), Brd2(2), Brd3(1), Brd3(2); His6 (N); made in house; host or cells: E. coli BL21(DE3)

Brd4(2) = molecular target: T3, Brd4(2) (Homo sapiens, UniProt O60885); conditions: wild type
T3 construct: Plasmids of the eight single BET bromodomain constructs Brd2(1), Brd2(2), Brd3(1), Brd3(2), Brd4(1), Brd4(2), Brdt(1) and Brdt(2); His6 (N); made in house; host or cells: E. coli BL21(DE3)

Brd2(1) = molecular target: T4, Brd2(1) (Homo sapiens, UniProt P25440); conditions: wild type
T4 construct: Plasmids of the eight single BET bromodomain constructs Brd2(1), Brd2(2), Brd3(1), Brd3(2); His6 (N); made in house; host or cells: E. coli BL21(DE3)

brd4(1)L094A = molecular target: T5, brd4(1)L094A (Homo sapiens, UniProt O60885, L94A); conditions: mutant
T5 construct: Plasmids of the eight single BET bromodomain constructs Brd2(1), Brd2(2), Brd3(1), Brd3(2), Brd4(1), Brd4(2), Brdt(1) and Brdt(2); His6 (N); made in house; host or cells: E. coli BL21(DE3)

brd4(2)L387A = molecular target: T6, brd4(2)L387A (Homo sapiens, UniProt O60885, L387A); conditions: mutant
T6 construct: Plasmids of the eight single BET bromodomain constructs Brd2(1), Brd2(2), Brd3(1), Brd3(2), Brd4(1), Brd4(2), Brdt(1) and Brdt(2); His6 (N); made in house; host or cells: E. coli BL21(DE3)

Brd2(1)*(Val103-Ala) = molecular target: T7, Brd2(1)*(Val103-Ala) (Homo sapiens, UniProt P25440, V103A); conditions: mutant
T7 construct: Plasmids of the eight single BET bromodomain constructs Brd2(1), Brd2(2), Brd3(1), Brd3(2); His6 (N); made in house; host or cells: E. coli BL21(DE3)

Brd2(2)*(Val376Ala) = molecular target: T8, Brd2(2)*(Val376Ala) (Homo sapiens, UniProt P25440, V376A); conditions: mutant
T8 construct: Plasmids of the eight single BET bromodomain constructs Brd2(1), Brd2(2), Brd3(1), Brd3(2); His6 (N); made in house; host or cells: E. coli BL21(DE3)
T8 sequence (P25440 344-453 V376A limits assumed): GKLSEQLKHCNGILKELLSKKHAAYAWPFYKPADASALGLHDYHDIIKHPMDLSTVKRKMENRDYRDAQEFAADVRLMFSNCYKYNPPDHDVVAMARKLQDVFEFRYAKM

T4 sequence (P25440 74-180 limits assumed): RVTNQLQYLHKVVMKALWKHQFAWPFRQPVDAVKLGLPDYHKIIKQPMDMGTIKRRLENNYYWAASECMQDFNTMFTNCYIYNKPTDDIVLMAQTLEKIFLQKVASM
T2 sequence (P25440 344-453 limits assumed): as the sequence (P25440 344-453 V376A limits assumed) above, with A33V counted along it
Sequence of Brd2(2)*(Leu383-Ala) (P25440 344-453 L383A limits assumed): as the sequence (P25440 344-453 V376A limits assumed) above, with A33V, L40A counted along it
T7 sequence (P25440 74-180 V103A limits assumed): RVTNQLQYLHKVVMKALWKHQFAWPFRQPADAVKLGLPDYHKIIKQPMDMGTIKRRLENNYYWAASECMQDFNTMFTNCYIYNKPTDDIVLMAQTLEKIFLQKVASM
Sequence of Brd2(1)*(Leu110-Ala) (P25440 74-180 L110A limits assumed): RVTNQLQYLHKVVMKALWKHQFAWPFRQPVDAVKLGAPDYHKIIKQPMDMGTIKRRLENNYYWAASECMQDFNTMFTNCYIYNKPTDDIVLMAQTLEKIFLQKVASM

| SMILES | ΔTm Brd2(2)*(Leu383-Ala) (Brd2(2)*(Leu383-Ala)) [K] | ΔTm Brd2(1)*(Leu110-Ala) (Brd2(1)*(Leu110-Ala)) [K] | ΔTm Brd4(1) (Brd4(1)) [K] | ΔTm Brd2(2) (Brd2(2)) [K] | ΔTm Brd4(2) (Brd4(2)) [K] | ΔTm Brd2(1) (Brd2(1)) [K] | ΔTm Brd4(1)* (L094A) (brd4(1)L094A) [K] | ΔTm Brd4(2)* (L387A) (brd4(2)L387A) [K] | Thermal stabilisation brd2(1)V103A (Brd2(1)*(Val103-Ala)) [°C] | ΔTm Brd2(1)*(Val103-Ala) (Brd2(1)*(Val103-Ala)) [K] | Thermal stabilisation brd2(2) (Brd2(2)) [°C] | Thermal stabilisation brd2(1) (Brd2(1)) [°C] | Thermal stabilisation brd2(2)V376A (Brd2(2)*(Val376Ala)) [°C] | ΔTm Brd(2)*(Val376-Ala) (Brd2(2)*(Val376Ala)) [K] |
| --- | --- | --- | --- | --- | --- | --- | --- | --- | --- | --- | --- | --- | --- | --- |
| CCC[C@H](C(=O)OC)[C@@H]1N=C(c2ccc(Cl)cc2)c2cc(OC)ccc2-n2c(C)nnc21 (racemic) [Compound 15, (+−)-Methyl (S)-2-((S)-6-(4-chlorophenyl)-8-methoxy-1-methyl-4H-benzo[f][1,2,4]triazolo[4,3-a][1,4]diazepin-4-yl)pentanoate] | 1.4 ± 0.2 | 0.9 ± 0.6 | 0.6 ± 1.1 | 0.5 ± 0.2 | −0.5 ± 1.1 | 0.1 ± 0.3 | 2.4 ± 1.3 | 1.6 ± 0.3 | – | – | – | – | – | – |
| COC(=O)[C@@H](CC1CC1)[C@@H]1N=C(c2ccc(Cl)cc2)c2cc(OC)ccc2-n2c(C)nnc21 (racemic) [Compound 16, (+−)-methyl (S)-2-((S)-6-(4-chlorophenyl)-8-methoxy-1-methyl-4H-benzo[f][1,2,4]triazolo[4,3-a][1,4]diazepin-4-yl)-3-cyclopropylpropanoate] | 2.3 ± 0.3 | 1.6 ± 1.0 | −0.4 ± 0.5 | 1.1 ± 0.3 | 0.3 ± 0.9 | −0.5 ± 0.6 | 1.3 ± 0.2 | 0.1 ± 0.1 | – | – | – | – | – | – |
| COC(=O)CC1N=C(c2ccc(Cl)cc2)c2cc(OC)cc(C)c2-n2c(C)nnc21 (stereo not drawn) [Compound 4, Methyl 2-(6-(4-chlorophenyl)-8-methoxy-1,10-dimethyl-4H benzo[f][1,2,4]triazolo[4,3-a][1,4]diazepin-4-yl)acetate] | – | – | – | 4.0 ± 0.1 | – | 0.7 ± 0.2 | – | – | 0.5 ± 0.3 | 0.5 ± 0.3 | 4.0 ± 0.1 | 0.7 ± 0.2 | 1.2 ± 0.1 | 1.2 ± 0.1 |
